According to patent publication US11479579B2, “Therapeutic compounds and methods” (Regents of the University of Minnesota, priority 2018, dated 2022):

How the values were obtained:
[1] = Stability in GI tract (gastric and intestinal phase); format: in vitro ADME; conditions: for Stability in the GI tract compared with p-GSH: summary in words of Table 1
Procedure: (§1) Compounds 4 and 9 were tested in for stability in the gastrointestinal tract and plasma.

Stability in plasma = format: in vitro ADME; conditions: for Stability in plasma compared with p-GSH: summary in words of Table 1
Procedure: as §1

[2] = Conversion of prodrugs into p-GSH in liver homogenate; format: in vitro ADME; conditions: liver homogenate with proteinase inhibitors; FIGS. 1 and 2
Procedure: The conversion of the p-GSH prodrugs, compounds 4 & 9 into p-GSH were studied in liver homogenate. Liver and brain homogenate were selected because they not only are considered as metabolic organs for p-GSH but also the target organs of p-GSH. The homogenate was prepared from fresh liver tissue and proteinase inhibitors were added in order to prevent degradation of metabolic enzymes.

glyoxalase-I = molecular target: T1, glyoxalase-I (Homo sapiens, UniProt Q04760); conditions: previous studies (More, Vince 2012); cited from earlier work
T1 sequence (Q04760 2-184 limits assumed): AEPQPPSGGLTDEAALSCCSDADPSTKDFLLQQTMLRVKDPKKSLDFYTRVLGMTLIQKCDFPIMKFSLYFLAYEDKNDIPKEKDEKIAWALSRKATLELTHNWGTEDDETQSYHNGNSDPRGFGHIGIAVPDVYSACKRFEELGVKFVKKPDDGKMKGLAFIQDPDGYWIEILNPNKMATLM

[3] = tested on: amyloid-β induced neurotoxicity; conditions: certain earlier data; cited from earlier work
[4] = tested on: transgenic Alzheimer's mice; conditions: certain earlier data; cited from earlier work
[5] = tested on: acetaminophen (ACP) toxicity; conditions: cited from earlier work

CC(=O)SC[C@H](NC(=O)NC[C@H](N)C(=O)O)C(=O)NCC(=O)O [Compound 4]
Stability in GI tract, Gastric Phase [1]: >24 h
Stability in GI tract, Intestinal Phase [1]: 5.1 h
Stability in the GI tract compared with p-GSH [1]: more stable than p-GSH in the GI tract
Stability in plasma (Stability in plasma): 5.8 h
Stability in plasma compared with p-GSH (Stability in plasma): more stable in plasma
Conversion into parent compound p-GSH [2]: can be converted into parent compound p-GSH

CCOC(=O)SC[C@H](NC(=O)NC[C@H](N)C(=O)O)C(=O)NCC(=O)O [Compound 9]
Stability in GI tract, Gastric Phase [1]: >24 h
Stability in GI tract, Intestinal Phase [1]: 7.7 h
Stability in the GI tract compared with p-GSH [1]: more stable than p-GSH in the GI tract
Stability in plasma (Stability in plasma): 80 h
Stability in plasma compared with p-GSH (Stability in plasma): more stable in plasma
Conversion into parent compound p-GSH [2]: can be converted into parent compound p-GSH

N[C@@H](CNC(=O)N[C@@H](CS)C(=O)NCC(=O)O)C(=O)O [p-GSH]
Stability in GI tract, Gastric Phase [1]: >24 h
Stability in GI tract, Intestinal Phase [1]: 1.3 h < 4 h
Stability in plasma (Stability in plasma): 0.0433 h
Substrate property for glyoxalase-I (glyoxalase-I): stable substrate
Effect on amyloid-β induced neurotoxicity [3]: reduced the amyloid-β induced neurotoxicity
Effect on cognitive decline [4]: prevented cognitive decline
Rescue agent against acetaminophen (ACP) toxicity [5]: useful as rescue agent
